Among the data in US6620798B1, “Synergistic agents for enhancing tissue repair” (priority 2000, dated 2003) are mobility and pain dec values, retold here.

A short description of the assay: Pain relief and mobility in patients with musculoskeletal trauma, flavonoid/flavonol versus NSAID. In kind it is in vivo, human. How it is done: A preparation containing 2000 mg of quercitin and 20 mg OPC flavonols was given to one group of patients every 6 hours relief of pain. A second group of patients were given 650 mg of […]) every 4 hours.
Setting [1] is: Acute knee trauma patellar dislocation.

With `Cc1ccc(-c2cc(C(F)(F)F)nn2-c2ccc(S(N)(=O)=O)cc2)cc1` [NSAID], the mobility result under setting [1] is on record as “mobility = 10”, the mobility result (Basketball "groin muscle pull") is listed as “mobility = 30” and the mobility result (Blunt injury to R. shoulder) is “mobility = 25”. The pain dec result by setting is: under setting [1], “pain dec = 5”; (Basketball "groin muscle pull") “pain dec = 15”; (Blunt injury to R. shoulder) “pain dec = 20”.
